In one test the test system is HuVec Cells. Kind of test: Transfection of HuVec cells with DOTMA/DOPE/peptide and eGFP plasmid, fluorescent plate reader. To be noted: DOTMA/DOPE 1:1 plus peptide with RRRRRRRRRRRR (SEQ ID NO: 109) at n terminus; EF1Alpha eGFP plasmid; 0.01 mL complex; 42 hours. Type of test: cell-based. As to the method:
(§1) Cells were plated to so that on the day of transfection the cells were 60-70% confluent in 96 well tissue culture plates. A DOMTA/DOPE Lipid solution (1:1 molar ratio) at 2 mg/mL in water were mixed with an equal volume of surface ligand peptides that had the nucleic acid binding moiety RRRRRRRRRRRR (SEQ ID NO: 109) covalently linked to the n terminus of each peptide during peptide synthesis. Peptides were at 2 mg/mL in water. The DOTMA/DOPE and the surface ligand peptide solution the transfection reagent was diluted 1 to 1 (v/v) in water. DOMTA/DOPE/PEPTIDE solutions were added to 0.1 mL of a plasmid DNA solution (EF1Alpha eGFP plasmid) at 5 μg/mL in OptiMEM. Lipofectamine 2000 was obtained from Life Technologies.
(§2) All solutions were at room temperature. A volume of 0.2 mL of a 5 μg/mL solution of DNA was aliquoted into each well of a non-tissue cultured treated plate. 4.0 μL of transfection reagents were added to DNA solutions respectively. The transfection reagent and DNA solution was mixed by pipetting up and down twice. Transfection complexes were formed for 10 minutes. After 10 minutes, 0.01 or 0.02 mL of the transfection complex was added to cells. HuVEC, HeLa, human adult keratinocytes, human primary adult fibroblast, and rat cortical neurons all respectively received 0.01 mL of the tramsfectopm complex. Human skeletal muscle cells, mouse C2C12 cells, Jurkat, and THP-1 cells received 0.02 mL of the transfection complex. Cells were incubated for 42 hours at 37° C. at 5% CO2. Plates were read on a fluorescent plate reader. Cells were also examined visually under a microscope to assess the extent of transfection (in terms of the percent of cells transfected) with a fluorescent microscope. Other modes of analysis, for example quantification with B-galactosidase or luciferase reports plasmids can also be used. […] Surface ligand that caused increase expression of GFP over the lipid DOTMA with no surface ligand were considered to enhance transfection or had higher % cells transfected were considered to enhance transfection. Peptides that gave greater than 2 fold enhancement are noted in bold and could be further optimized by adding different transfection enhancers or could be used with different cationic lipids or polymers.

In test [1] the test system is HeLa Cells. The test can be described thus: Transfection of HeLa cells with DOTMA/DOPE/peptide and eGFP plasmid, fluorescent plate reader. Format: cell-based. To be noted: DOTMA/DOPE 1:1 plus peptide with RRRRRRRRRRRR (SEQ ID NO: 109) at n terminus; EF1Alpha eGFP plasmid; 0.01 mL complex; 42 hours. As to the method: as §1, §2
A further test has as its system some examined cell types. Kind of test: Transfection expression and % cells transfected over the no peptide control. Type of test: cell-based. The following applies: on some examined cell types. As to the method: as §1, §2
Test [2] concerns HeLa Cells. The test can be described thus: Transfection of HeLa cells with DOTMA/SEQ ID NO: 72/peptide compared with Lipofectamine 2000. Type of test: cell-based. To be noted: fusogenic peptide 0.1 mg/mL. The procedure:
as §1, §2
The fusogenic peptide was added to the DOMTA/peptide formulation to achieve a final concentration of 0.1 mg/mL to see if transfection reagents were further enhanced by the addition of a fusogenic peptide and could provide higher transfection efficiency into HeLa cells and expression than the commercially available Lipofectamine 2000.

A further test has as its system C2C12 Cells. Kind of test: Transfection of C2C12 cells with DOTMA/DOPE/peptide and eGFP plasmid, fluorescent plate reader. Type of test: cell-based, mouse. The following applies: DOTMA/DOPE 1:1 plus peptide with RRRRRRRRRRRR (SEQ ID NO: 109) at n terminus; EF1Alpha eGFP plasmid; 0.02 mL complex; 42 hours. The procedure: as §1, §2
The test system of a further test is Jurkat Cells. The test can be described thus: Transfection of Jurkat cells with DOTMA/DOPE/peptide and eGFP plasmid, fluorescent plate reader. The following applies: DOTMA/DOPE 1:1 plus peptide with RRRRRRRRRRRR (SEQ ID NO: 109) at n terminus; EF1Alpha eGFP plasmid; 0.02 mL complex; 42 hours. Format: cell-based. As to the method:
as §1, §2

In a further test the test system is Human Fibroblast Cells. Kind of test: Transfection of human fibroblast cells with DOTMA/DOPE/peptide and eGFP plasmid, fluorescent plate reader. Format: cell-based. To be noted: DOTMA/DOPE 1:1 plus peptide with RRRRRRRRRRRR (SEQ ID NO: 109) at n terminus; EF1Alpha eGFP plasmid; 0.01 mL complex; 42 hours. The procedure: as §1, §2
A further test has as its system NL-1 iPS Cells. The test can be described thus: Transfection of NL-1 iPS cells with DOTMA/DOPE/peptide and eGFP plasmid, fluorescent plate reader. Type of test: cell-based. The following applies: DOTMA/DOPE 1:1 plus peptide with RRRRRRRRRRRR (SEQ ID NO: 109) at n terminus; EF1Alpha eGFP plasmid; 42 hours. As to the method:
as §1, §2

[3] abbreviates: 0.1 μL of DOTMA/SEQ ID NO: 72/Peptide in well of a 96 well plate.
The mark [4] stands for this setting: 0.2 μL of DOTMA/SEQ ID NO: 72/Peptide in well of a 96 well plate.
Where [5] appears, read: 0.3 μL of DOTMA/SEQ ID NO: 72/Peptide in well of a 96 well plate.
[6] abbreviates: 0.4 μL of DOTMA/SEQ ID NO: 72/Peptide in well of a 96 well plate.

Consider “360 (GDLGRPGRKGRPGPP; Peptidic transfection agent) [compound 360]”, for which the “RF (Relative Fluorescence) of Transfection of HuVec Cells” value in the test with HuVec Cells is given as 24042. In addition, in the test on HeLa Cells [1], the “RF (Relative Fluorescence) of Transfection of HeLa Cells” value amounted to 8516. In addition, in the test with some examined cell types, the “transfection expression and the % cells transfected over the no peptide control” value is reported as “increased”. Further, the “RF (Relative Fluorescence), DOTMA/SEQ ID NO: 72/Peptide, HeLa Cells” value in the test on HeLa Cells [2] (setting [3]) was 9946; in the test with HeLa Cells [2] (setting [4]), 11168; in the test on HeLa Cells [2] (setting [5]) it was 10381; in the test with HeLa Cells [2] (setting [6]), 8995. Further, the “RF (Relative Fluorescence) of Transfection of C2C12 Cells” value with C2C12 Cells is 2090. In addition, in the test on Jurkat Cells, the “RF (Relative Fluorescence) of Transfection of Jurkat Cells” value is listed as 16607. The “RF (Relative Fluorescence) of Transfection of Human Fibroblast Cells” value in the test on Human Fibroblast Cells worked out at 5347. Also, the “RF (Relative Fluorescence) of Transfection of NL-1 iPS Cells” value in the test on NL-1 iPS Cells is 27572.

On to “268 (GGFLKYTVSYDI; Peptidic transfection agent) [compound 268]”, for which, in the test on HuVec Cells, the “RF (Relative Fluorescence) of Transfection of HuVec Cells” value was found to be 5403. The “RF (Relative Fluorescence) of Transfection of HeLa Cells” value in the test on HeLa Cells [1] came out at 25885. For the same substance, the “transfection expression and the % cells transfected over the no peptide control” value in the test on some examined cell types is reported as “increased”. Also, the “RF (Relative Fluorescence), DOTMA/SEQ ID NO: 72/Peptide, HeLa Cells” value in the test with HeLa Cells [2] (setting [3]) is given as 10162; in the test with HeLa Cells [2] (setting [4]), 9934; in the test on HeLa Cells [2] (setting [5]) it was 10792; in the test with HeLa Cells [2] (setting [6]) it was 9519. In the test on C2C12 Cells, the “RF (Relative Fluorescence) of Transfection of C2C12 Cells” value is 2568. In the test on Jurkat Cells, the “RF (Relative Fluorescence) of Transfection of Jurkat Cells” value was 3236. For the same substance, the “RF (Relative Fluorescence) of Transfection of Human Fibroblast Cells” value in the test on Human Fibroblast Cells was 4568. Further, the “RF (Relative Fluorescence) of Transfection of NL-1 iPS Cells” value in the test on NL-1 iPS Cells was 15697.

For the substance “379 (TAGSCLRKF; Peptidic transfection agent) [compound 379]”, in the test on HuVec Cells, the “RF (Relative Fluorescence) of Transfection of HuVec Cells” value stood at 14573. Besides, the “RF (Relative Fluorescence) of Transfection of HeLa Cells” value with HeLa Cells [1] is 27424. Moreover, the “transfection expression and the % cells transfected over the no peptide control” value in the test on some examined cell types is “increased”. The “RF (Relative Fluorescence), DOTMA/SEQ ID NO: 72/Peptide, HeLa Cells” value with HeLa Cells [2] (setting [3]) is reported as 50018; in the test with HeLa Cells [2] (setting [4]) it was 47049; in the test on HeLa Cells [2] (setting [5]) it was 39036; in the test on HeLa Cells [2] (setting [6]) it was 26448. Further, in the test on C2C12 Cells, the “RF (Relative Fluorescence) of Transfection of C2C12 Cells” value stood at 3189. In addition, the “RF (Relative Fluorescence) of Transfection of Jurkat Cells” value with Jurkat Cells came out at 7711. Besides, the “RF (Relative Fluorescence) of Transfection of Human Fibroblast Cells” value with Human Fibroblast Cells was determined as 8520. For the same substance, the “RF (Relative Fluorescence) of Transfection of NL-1 iPS Cells” value with NL-1 iPS Cells came out at 6894.

Regarding “323 (HQQDLGTAGSCLRKFSTMFLF; Peptidic transfection agent) [compound 323]”, the “RF (Relative Fluorescence) of Transfection of HuVec Cells” value in the test with HuVec Cells stood at 12815. Also, in the test with HeLa Cells [1], the “RF (Relative Fluorescence) of Transfection of HeLa Cells” value is 14067. Moreover, the “transfection expression and the % cells transfected over the no peptide control” value in the test on some examined cell types is “increased”. In addition, the “RF (Relative Fluorescence), DOTMA/SEQ ID NO: 72/Peptide, HeLa Cells” value in the test with HeLa Cells [2] (setting [3]) came to 15537; in the test with HeLa Cells [2] (setting [4]), 16620; in the test on HeLa Cells [2] (setting [5]) it was 10839; in the test with HeLa Cells [2] (setting [6]) it was 9244. In the test with C2C12 Cells, the “RF (Relative Fluorescence) of Transfection of C2C12 Cells” value was determined as 7698. The “RF (Relative Fluorescence) of Transfection of Jurkat Cells” value in the test with Jurkat Cells stood at 2900. Besides, the “RF (Relative Fluorescence) of Transfection of Human Fibroblast Cells” value with Human Fibroblast Cells turned out to be 4826. Moreover, the “RF (Relative Fluorescence) of Transfection of NL-1 iPS Cells” value in the test on NL-1 iPS Cells turned out to be 21694.

In the case of “353 (KKQRFRHRNRKGYRSQ; Peptidic transfection agent) [compound 353]”, in the test on HuVec Cells, the “RF (Relative Fluorescence) of Transfection of HuVec Cells” value came to 8772. Moreover, the “RF (Relative Fluorescence) of Transfection of HeLa Cells” value with HeLa Cells [1] was 29119. For the same substance, the “transfection expression and the % cells transfected over the no peptide control” value in the test with some examined cell types was “increased”. The “RF (Relative Fluorescence), DOTMA/SEQ ID NO: 72/Peptide, HeLa Cells” value amounted to 36315 in the test with HeLa Cells [2] (setting [3]), 44772 with HeLa Cells [2] (setting [4]), 36882 in the test on HeLa Cells [2] (setting [5]) and 25802 in the test with HeLa Cells [2] (setting [6]). The “RF (Relative Fluorescence) of Transfection of C2C12 Cells” value in the test on C2C12 Cells is 4291. Moreover, in the test with Jurkat Cells, the “RF (Relative Fluorescence) of Transfection of Jurkat Cells” value was found to be 11107. In addition, in the test on Human Fibroblast Cells, the “RF (Relative Fluorescence) of Transfection of Human Fibroblast Cells” value worked out at 8653. Also, the “RF (Relative Fluorescence) of Transfection of NL-1 iPS Cells” value in the test on NL-1 iPS Cells was determined as 9248.

These data come from patent US11085056B2, “Transfection complexes and methods of using the same” (MOLECULAR TRANSFER, INC., priority 2015, dated 2021).
